# Biological target: Human HDAC6 (Homo sapiens (Human), UniProt Q9UBN7)
# Test: HDAC6 enzymatic activity assay (Caliper endpoint or fluorogenic format)
# Assay type: biochemical
# Settings: in vitro enzymatic
# Sequence of Human HDAC6 (Q9UBN7 whole entry): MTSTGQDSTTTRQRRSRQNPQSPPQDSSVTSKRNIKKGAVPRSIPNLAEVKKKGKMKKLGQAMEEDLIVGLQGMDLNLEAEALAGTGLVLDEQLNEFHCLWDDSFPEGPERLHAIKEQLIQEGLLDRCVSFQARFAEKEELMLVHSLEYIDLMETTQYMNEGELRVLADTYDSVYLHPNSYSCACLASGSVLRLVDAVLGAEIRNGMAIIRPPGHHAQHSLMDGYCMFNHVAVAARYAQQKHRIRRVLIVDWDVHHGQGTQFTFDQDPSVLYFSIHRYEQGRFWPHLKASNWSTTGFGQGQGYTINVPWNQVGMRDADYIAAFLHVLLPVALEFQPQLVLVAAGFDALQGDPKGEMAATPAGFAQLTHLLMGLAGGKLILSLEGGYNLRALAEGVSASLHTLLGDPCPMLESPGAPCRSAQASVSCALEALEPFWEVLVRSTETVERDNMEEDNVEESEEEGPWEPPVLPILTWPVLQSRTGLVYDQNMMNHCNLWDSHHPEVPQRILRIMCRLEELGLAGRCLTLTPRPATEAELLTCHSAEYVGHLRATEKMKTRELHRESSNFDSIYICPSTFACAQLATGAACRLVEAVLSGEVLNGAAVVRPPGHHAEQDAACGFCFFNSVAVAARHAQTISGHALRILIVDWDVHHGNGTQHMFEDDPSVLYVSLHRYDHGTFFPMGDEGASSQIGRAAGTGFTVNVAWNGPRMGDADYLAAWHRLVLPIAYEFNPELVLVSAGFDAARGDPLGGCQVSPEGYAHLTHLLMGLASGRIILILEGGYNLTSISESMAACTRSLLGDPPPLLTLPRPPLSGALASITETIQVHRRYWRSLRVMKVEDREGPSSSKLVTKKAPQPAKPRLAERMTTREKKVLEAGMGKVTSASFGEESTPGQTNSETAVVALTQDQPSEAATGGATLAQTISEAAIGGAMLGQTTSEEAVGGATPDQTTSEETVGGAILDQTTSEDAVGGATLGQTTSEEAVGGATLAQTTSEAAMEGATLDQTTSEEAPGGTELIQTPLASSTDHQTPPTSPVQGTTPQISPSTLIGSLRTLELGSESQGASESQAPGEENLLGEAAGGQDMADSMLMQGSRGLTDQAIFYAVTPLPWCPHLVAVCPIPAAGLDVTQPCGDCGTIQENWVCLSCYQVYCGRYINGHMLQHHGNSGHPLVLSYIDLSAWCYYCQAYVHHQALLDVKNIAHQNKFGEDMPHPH
row,Structure (SMILES),IC50
1,CN1[C@@H]2CC[C@H]1C[C@H](OCc1ccc(-c3nnc(C(F)F)o3)cn1)C2 [Compound 113],1000 to 10000 nM
2,FC(F)c1nnc(-c2cnc(COc3ccc4nccnc4c3)nc2)o1 [Compound 150],1 to 100 nM
3,Cc1ccc2nnc(OCc3ccc(-c4nnc(C(F)F)o4)cn3)n2c1 [Compound 89],1 to 100 nM
4,FC(F)c1nnc(-c2ccc(COc3ncco3)nc2)o1 [Compound 100],100 to 1000 nM
5,"Cn1ncc2cc(OCc3ncc(-c4nnc(C(F)F)o4)cc3F)ccc21 [Compound 139, 2-(difluoromethyl)-5-(5-fluoro-6-(((1-methyl-1H-indazol-5-yl)oxy)methyl)pyridin-3-yl)-1,3,4-oxadiazole]",1 to 100 nM
6,N#Cc1ccc(COCc2ccc(-c3nnc(C(F)F)o3)cn2)s1 [Compound 120],100 to 1000 nM
7,Cc1nc2ccc(OCc3ccc(-c4nnc(C(F)F)o4)cn3)cc2o1 [Compound 38],1 to 100 nM
8,FC(F)c1nnc(-c2cnc(COc3cccc4ocnc34)nc2)o1 [Compound 144],1 to 100 nM
9,"Fc1cc(-c2nnc(C(F)F)o2)cnc1COc1ccc2ccccc2c1 [Compound 182, 2-(Difluoromethyl)-5-(5-fluoro-6-((naphthalen-2-yloxy)methyl)pyridin-3-yl)-1,3,4-oxadiazole]",1 to 100 nM
10,Cc1noc2cc(OCc3ncc(-c4nnc(C(F)F)o4)cn3)ccc12 [Compound 136],1 to 100 nM
11,FC(F)c1nnc(-c2ccc(COC3CC4CCC(C3)O4)nc2)o1 (centres unmarked) [Compound 109],100 to 1000 nM
12,FC(F)c1nnc(-c2ccc(COCC3CC4CCC(C3)N4)nc2)o1 (centres unmarked) [Compound 23],100 to 1000 nM
13,CN1C[C@@]2(COCc3ccc(-c4nnc(C(F)F)o4)cn3)C[C@@H]1CO2 [Compound 25],100 to 1000 nM
14,FC(F)c1nnc(-c2ccc(COc3ncccn3)nc2)o1 [Compound 78],100 to 1000 nM
15,Fc1cc(-c2nnc(C(F)F)o2)cnc1COc1ccc2cccnc2c1 [Compound 124],1 to 100 nM
16,Cn1ncc2cc(OCc3ncc(-c4nnc(C(F)F)o4)cn3)ccc21 [Compound 138],1 to 100 nM
17,FC(F)c1nnc(-c2ccc(COc3nnc4ccccn34)nc2)o1 [Compound 87],1 to 100 nM

row,Structure (SMILES),IC50
1,FC(F)c1nnc(-c2ccc(COc3ccc(C(F)(F)F)cn3)nc2)o1 [Compound 94],100 to 1000 nM
2,Cn1cnc2cc(OCc3ncc(-c4nnc(C(F)F)o4)cn3)ccc21 [Compound 146],1 to 100 nM
3,Cc1noc2cccc(OCc3ncc(-c4nnc(C(F)F)o4)cn3)c12 [Compound 134],1 to 100 nM
4,Cn1ccc(OCc2ccc(-c3nnc(C(F)F)o3)cn2)n1 [Compound 66],1 to 100 nM
5,"FC(F)c1nnc(-c2ccc(COc3cccc(-c4ccccc4)c3)nc2)o1 [Compound 188, 2-(6-(([1,1′-Biphenyl]-3-yloxy)methyl)pyridin-3-yl)-5-(difluoromethyl)-1,3,4-oxadiazole]",100 to 1000 nM
6,Fc1cc(-c2nnc(C(F)F)o2)cnc1COc1cccc2cnccc12 [Compound 125],1 to 100 nM
7,Fc1cc(-c2nnc(C(F)F)o2)cnc1COc1cccc2ncccc12 [Compound 132],1 to 100 nM
8,FC(F)c1nnc(-c2ccc(COc3cccnn3)nc2)o1 [Compound 103],100 to 1000 nM
9,FC(F)c1nnc(-c2ccc(COc3ccncn3)nc2)o1 [Compound 104],1 to 100 nM
10,"FC(F)c1nnc(-c2ccc(COc3ccccc3-c3ccccc3)nc2)o1 [Compound 187, 2-(6-(([1,1′-biphenyl]-2-yloxy)methyl)pyridin-3-yl)-5-(difluoromethyl)-1,3,4-oxadiazole]",1000 to 10000 nM
11,Cc1nc2cc(OCc3ncc(-c4nnc(C(F)F)o4)cn3)ccc2o1 [Compound 140],1 to 100 nM
12,FC(F)c1nnc(-c2ccc(CO[C@@H]3C[C@H]4CC[C@@H](C3)O4)nc2)o1 [Compound 110],100 to 1000 nM
13,C#Cc1cccc(OCc2ncc(-c3nnc(C(F)F)o3)cc2F)c1 [Compound 128],1 to 100 nM
14,"FC(F)c1nnc(-c2ccc(C(F)(F)Oc3cccc4ccccc34)nc2)o1 [Compound 14, 2-(6-(difluoro(naphthalen-1-yloxy)methyl)pyridin-3-yl)-5-(difluoromethyl)-1,3,4-oxadiazole]",100 to 1000 nM
15,Fc1ccc(OCc2ncc(-c3nnc(C(F)F)o3)cn2)cc1F [Compound 22],1 to 100 nM
16,Fc1ccc(OCc2ncc(-c3nnc(C(F)F)o3)cc2F)c(F)c1 [Compound 131],1 to 100 nM

# Next, values leading:
row,IC50,Structure (SMILES)
1,1 to 100 nM,N#Cc1ccc(OCc2ncc(-c3nnc(C(F)F)o3)cn2)cc1 [Compound 164]
2,100 to 1000 nM,FC(F)c1nnc(-c2ccc(COc3ccc4c(c3)CCNC4)nc2)o1 [Compound 170]
3,1 to 100 nM,FC(F)c1nnc(-c2cnc(COc3cccc4nccnc34)nc2)o1 [Compound 158]
4,1 to 100 nM,"FC(F)c1nnc(-c2ccc(COc3cnc4ccnn4c3)nc2)o1 [Compound 183, 2-(Difluoromethyl)-5-(6-((pyrazolo[1,5-a]pyrimidin-6-yloxy)methyl)pyridin-3-yl)-1,3,4-oxadiazole]"
5,1 to 100 nM,FC(F)c1nnc(-c2ccc(COc3cnc(C(F)(F)F)nc3)nc2)o1 [Compound 205]
6,1 to 100 nM,Fc1cc(-c2nnc(C(F)F)o2)cnc1COc1cccc2cncnc12 [Compound 161]
7,1 to 100 nM,Cn1cnc2ccc(OCc3ccc(-c4nnc(C(F)F)o4)cn3)cc21 [Compound 213]
8,1 to 100 nM,"O=C(Nc1ccccc1)c1cccc(OCc2ccc(-c3nnco3)cn2)c1 [Compound 196, 3-((5-(1,3,4-oxadiazol-2-yl)pyridin-2-yl)methoxy)-N-phenylbenzamide]"
9,1 to 100 nM,"FC(F)c1nnc(-c2ccc(COc3ccnc(-c4ccccc4)c3)nc2)o1 [Compound 186, 2-(Difluoromethyl)-5-(6-(((2-phenylpyridin-4-yl)oxy)methyl)pyridin-3-yl)-1,3,4-oxadiazole]"
10,1 to 100 nM,"FC(F)c1nnc(-c2ccc(COc3ccnc(Cl)c3)nc2)o1 [Compound 189, 2-(6-(((2-Chloropyridin-4-yl)oxy)methyl)pyridin-3-yl)-5-(difluoromethyl)-1,3,4-oxadiazole]"
11,1 to 100 nM,"CNC(=O)c1cccc(OCc2ccc(-c3nnc(C(F)F)o3)cn2)c1 [Compound 197, 3-((5-(5-(difluoromethyl)-1,3,4-oxadiazol-2-yl)pyridin-2-yl)methoxy)-N-methylbenzamide]"
12,1 to 100 nM,FC(F)c1nnc(-c2cnc(COc3ccc4ccncc4c3)nc2)o1 [Compound 156]
13,1 to 100 nM,FC(F)c1nnc(-c2cnc(COc3ccc4cnccc4c3)nc2)o1 [Compound 154]
14,1 to 100 nM,Cn1cnc2c(OCc3ccc(-c4nnc(C(F)F)o4)cn3)cccc21 [Compound 208]
15,1 to 100 nM,FC(F)c1nnc(-c2cnc(COc3cccc4cncnc34)nc2)o1 [Compound 160]
16,1 to 100 nM,Fc1cc(-c2nnc(C(F)F)o2)cnc1COc1cccc2nccnc12 [Compound 159]
17,1 to 100 nM,FC(F)c1nnc(-c2cnc(COc3cccnc3)nc2)o1 [Compound 162]
18,1 to 100 nM,"Fc1cc(-c2nnc(C(F)F)o2)cnc1COc1ccc2ncncc2c1 [Compound 181, 2-(Difluoromethyl)-5-(5-fluoro-6-((quinazolin-6-yloxy)methyl)pyridin-3-yl)-1,3,4-oxadiazole]"
19,1 to 100 nM,Cn1c(-c2ccc(OCc3ccc(-c4nnc(C(F)F)o4)cn3)cc2)nc2ccccc21 [Compound 200]
20,1 to 100 nM,N#Cc1cccc(OCc2ncc(-c3nnc(C(F)F)o3)cc2F)c1 [Compound 167]

# From patent publication US20230322747A1, “OXADIAZOLE HDAC6 INHIBITORS AND USES THEREOF” (Eikonizo Therapeutics, Inc., priority 2022, published 2023)
